Publication PMC6530601, “Rapid and Scalable Plant-Based Production of a Potent Plasmin Inhibitor Peptide” (Frontiers in Plant Science, 2019)
Bridge positions count the residues as written; N and C are the ends. Peptide text beside a SMILES is read from it.

Tests used:
native human plasmin [1] = target: T1, native human plasmin (Homo sapiens, UniProt P00747); experiment: Plasmin inhibitory assay (chromogenic peptide substrate); type: biochemical; conditions: plant-derived peptide; 1 nM native human plasmin, 30 min pre-incubation, 0.1 M Tris-HCl, pH 8.0, 0.1 M NaCl, 0.005% Triton X-100; 100 μM Acetyl-Arg-Met(sulphone)-Tyr-Arg-pNA, 405 nm over 7 min; Morrison equation; n = 3 independent assays; read-out: inhibition constant (Ki)
T1 construct: incubated with 1 nM native human plasmin (Sigma-Aldrich); purchased Sigma-Aldrich
Description: (§1) A serial dilution of plant-derived [T4Y,I7R]SFTI-1 was incubated with 1 nM native human plasmin (Sigma-Aldrich) for 30 min in assay buffer (0.1 M Tris-HCl, pH 8.0, 0.1 M NaCl, and 0.005% Triton X-100) in low binding 96-well plates (Corning). […] The inhibition constant (Ki) was determined from three independent assays by the Morrison equation and non-linear regression using GraphPad Prism 6.

native human plasmin [2] = target: T1, native human plasmin; conditions: substrate of plasmin assay; determination not described, no reference given; cited from earlier work
Description: as §1, with “non-lin ...” for “non-linear regression using GraphPad Prism 6.”

T1 sequence (P00747 581-810 limits assumed): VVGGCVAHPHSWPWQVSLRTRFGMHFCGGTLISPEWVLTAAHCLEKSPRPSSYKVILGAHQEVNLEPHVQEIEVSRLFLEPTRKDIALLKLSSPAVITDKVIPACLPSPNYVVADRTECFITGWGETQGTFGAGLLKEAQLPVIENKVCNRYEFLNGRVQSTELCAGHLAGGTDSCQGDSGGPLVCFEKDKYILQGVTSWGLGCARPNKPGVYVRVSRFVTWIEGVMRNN
T1 sequence (P00747 97-580 partner limits assumed): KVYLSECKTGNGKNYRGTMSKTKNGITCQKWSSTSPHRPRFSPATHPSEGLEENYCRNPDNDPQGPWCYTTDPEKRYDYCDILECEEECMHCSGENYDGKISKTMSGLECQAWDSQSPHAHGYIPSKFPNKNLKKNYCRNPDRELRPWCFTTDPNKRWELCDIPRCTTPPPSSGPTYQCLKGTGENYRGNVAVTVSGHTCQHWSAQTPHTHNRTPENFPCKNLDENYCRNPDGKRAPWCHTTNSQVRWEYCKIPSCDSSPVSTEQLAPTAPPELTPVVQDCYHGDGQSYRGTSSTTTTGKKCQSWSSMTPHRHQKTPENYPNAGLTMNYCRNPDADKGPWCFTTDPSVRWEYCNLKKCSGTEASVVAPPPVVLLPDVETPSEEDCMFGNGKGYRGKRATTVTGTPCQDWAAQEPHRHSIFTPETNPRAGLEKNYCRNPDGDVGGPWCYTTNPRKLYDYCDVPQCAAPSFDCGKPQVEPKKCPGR

Ki (native human plasmin [1]) [nM] | Compound | Km (native human plasmin [2]) [µM]
0.025 ± 0.004 | CC[C@H](C)[C@@H]1NC(=O)[C@@H]2CCCN2C(=O)[C@@H]2CCCN2C(=O)[C@H](CCCNC(=N)N)NC(=O)[C@H](CO)NC(=O)[C@H](CCCCN)NC(=O)[C@H](Cc2ccc(O)cc2)NC(=O)[C@@H]2CSSC[C@H](NC1=O)C(=O)N[C@@H](Cc1ccccc1)C(=O)N1CCC[C@H]1C(=O)N[C@@H](CC(=O)O)C(=O)NCC(=O)N[C@@H](CCCNC(=N)N)C(=O)N2 [[T4Y,I7R]SFTI-1] (cyclo(CFPDGRCYKSRPPI); disulfide 1-7) | –
– | Acetyl-Arg-Met(sulphone)-Tyr-Arg-pNA [colorimetric peptide substrate of plasmin] | 23.5
